Test results reported in patent publication US11136351B2 (priority 2016, dated 2021).
Residues, ends and D or L forms follow the SMILES beside them.

Conditions: pH 1.2

## N=C(N)NCCC[C@@H]1NC(=O)[C@@H]2CCCN2C(=O)[C@H](CC(=O)O)NC(=O)[C@H](CO)NC(=O)[C@H](CO)NC(=O)[C@@H](NC(=O)CN)CSSC[C@@H](C(N)=O)NC1=O [[Ser^3]Vc1.1(1-8)] (HELM PEPTIDE1{G.C.S.S.D.P.R.C.[am]}$PEPTIDE1,PEPTIDE1,2:R3-8:R3$$$V2.0)
  stability in simulated gastric fluid: good stability
